Data on six molecules can be found in patent US20090093423A2, “NOVEL 2-SUBSTITUTED METHYL PENAM DERIVATIVES” (Orchid Chemicals and Pharmaceuticals Limited, priority 2006, published 2009).

Where only a bound is given, the exact number is not on record here.

Assay [1] relates to A. baumani MRO 14512. In words: MIC, Agar Dilution Method, resistant clinical isolate. In kind it is cell-based. How it is done:
(§1) The novel compounds were tested for the in vitro antibacterial activities by the Agar Dilution Method as specified in documents published by NCCLS, now CLSI, USA. (National Committee for Clinical Laboratory Standards (NCCLS). 2003. Approved standard M7-A6. NCCLS, Villanova, Pa.).
(§2) Tazo was also dissolved in same buffer to get a solution of, e.g., 1 mg/mL. Novel penam derivatives described herein were dissolved in water to get a solution of, e.g., 1 mg/mL.
(§3) The novel compounds and Tazo were also tested individually. The bacterial inoculum was prepared by picking 3 to 5 well-isolated bacterial colonies with the same morphological appearance from an 18-24 h old culture and adjusting the turbidity of the saline suspension to 0.5 McFarland Turbidity Standard equivalent to a bacterial population of 1.5×10^8 colony forming units (CFU) per mL of suspension. The suspension was diluted 1:10 in saline (i.e. 0.5 mL suspension+4.5 mL saline) to get a bacterial population of 1.5×10^7 CFU/mL as inoculum. […] The inoculated petridishes were incubated at 35° C. in an ambient atmosphere for 16-20 h.
Background: In agar dilution the substance is mixed into plates at graded concentrations.

In assay [2] the test system is A. baumani MRO 14514. The description is as above. In kind it is cell-based. On the procedure: as §1, §2, §3
The subject of assay [3] is A. baumani MRO 14515. The assay is described as above. In kind it is cell-based. How it is done: as §1, §2, §3
For assay [4], the system named is E. coli MRO 10135. Described as above. In kind it is cell-based. How it is done:
as §1, §2, §3

The test system of assay [5] is strains resistant to Fluoroquinolones. The following applies: Kriengkauykiat et al. 2005; cited from earlier work.
Assay [6] addresses Penicillinase enzyme. In words: β-Lactamase assay (Centa substrate). In kind it is biochemical. The settings on record: FIG. 1. How it is done: Representative novel compounds were subjected to β-lactamase assay to determine and compare their IC50 with that of Tazo as described elsewhere (Bebrone et. al, 2001, Antimicrob. Agents. Chemother. 45(6): 1868-1871; Jamieson et. al, 2003, Antimicrob. Agents. Chemother. 47(5): 1652-1657). Briefly enzyme inhibition assays with Tazo acid as the standard inhibitor for % inhibitions & IC50 value with optimized concentrations of Penicillinase enzyme & Centa β-lactamase substrate were performed.

Take `CC(C)(O/N=C(\C(=O)N[C@@H]1C(=O)N2C(C(=O)[O-])=C(C[n+]3ccccc3)CS[C@H]12)c1csc(N)n1)C(=O)O` [Ceftazidime]: the “MIC (antibiotic alone)” value in assay [1], in assay [2], in assay [3] and in assay [4] was above 64 µg/mL throughout. In addition, the “cross-resistance of strains resistant to Fluoroquinolones” value in assay [5] was 76%.

For the molecule `CC[n+]1ccn(C[C@@]2(C)[C@H](C(=O)[O-])N3C(=O)C[C@H]3S2(=O)=O)n1` [Example 2, 1-{[(2S,3S,5R)-2-Carboxy-3-methyl-4,4,7-trioxo-4-thia-1-azabicyclo[3.2.0]hept-3-yl]methyl}-3-ethyl-1H-1,2,3-triazol-3-ium], the “IC50 compared with Tazo” value in assay [6] was “three-fold lower”.

As for `CCC[n+]1ccn(C[C@@]2(C)[C@H](C(=O)[O-])N3C(=O)C[C@H]3S2(=O)=O)n1` [Example 3, 1-{[(2S,3S,5R)-2-Carboxy-3-methyl-4,4,7-trioxo-4-thia-1-azabicyclo[3.2.0]hept-3-yl]methyl}-3-n-propyl-1H-1,2,3-triazol-3-ium], in assay [6], the “IC50 compared with Tazo” value is recorded as “comparatively lower”.

Regarding `C=CC[n+]1ccn(C[C@@]2(C)[C@H](C(=O)[O-])N3C(=O)C[C@H]3S2(=O)=O)n1` [Example 4, 1-{[(2S,3S,5R)-2-Carboxy-3-methyl-4,4,7-trioxo-4-thia-1-azabicyclo[3.2.0]hept-3-yl]methyl}-3-allyl-1H-1,2,3-triazol-3-ium], the “IC50 compared with Tazo” value in assay [6] was “comparatively lower”.

With `C[C@]1(Cn2cc[n+](CC(N)=O)n2)[C@H](C(=O)[O-])N2C(=O)C[C@H]2S1(=O)=O` [Example 5, 1-{[(2S,3S,5R)-2-Carboxy-3-methyl-4,4,7-trioxo-4-thia-1-azabicyclo[3.2.0]hept-3-yl]methyl}-3-(2-amino-2-oxoethyl)-1H-1,2,3-triazol-3-ium], the “IC50 compared with Tazo” value in assay [6] is reported as “comparatively lower”.

On to `C[C@]1(Cn2cc[n+](CC(=O)N3CCOCC3)n2)[C@H](C(=O)[O-])N2C(=O)C[C@H]2S1(=O)=O` [Example 7, 1-{[(2S,3S,5R)-2-Carboxy-3-methyl-4,4,7-trioxo-4-thia-1-azabicyclo[3.2.0]hept-3-yl]methyl}-3-(2-morpholin-4-yl-2-oxoethyl)-1H-1,2,3-triazol-3-ium], for which, in assay [6], the “IC50 compared with Tazo” value is on record as “comparatively lower”.
